From patent US9139532B2, “Pyrazolyl guanidine F1F0-atpase inhibitors and therapeutic uses thereof” (Lycera Corporation, priority 2010, dated 2015)
pEC50, pIC50: −log10 of the molar value. Like-named read-outs stand apart in the source and are kept apart here.

Assays:
[1] = target: T1, F1F0-ATPase (Bos taurus, UniProt P13621); experiment: Inhibition of F1F0-ATPase activity in synthesizing ATP; assay type: biochemical; settings: inhibition of ATP synthesis by F1F0-ATPase; read-out: ATP Syn IC50
T1 construct: from tissue

[2] = tested on: Ramos cells; experiment: Cytotoxicity in Ramos cells; assay type: cell-based; settings: cytotoxicity in Ramos cells, read-out: Ramos Cell EC50

| SMILES | pIC50 [1] | pEC50 ([2]; Homo sapiens) | pEC50 [2] |
| --- | --- | --- | --- |
| O=C(/N=C(/NCc1cccc(C(F)(F)F)c1)Nc1cc(C(F)(F)F)n[nH]1)c1ccc(Cl)cc1 [Compound A-10] | > 5.00 | > 5.00 |  |
| COCCOCC(C)(C)N/C(=N/C(=O)c1cccc(C#N)c1)Nc1cc(-c2ccc(F)cc2)n[nH]1 [Compound A-506] | > 5.00 |  | > 5.00 |
| Cc1cc(NC(=NC(=O)c2ccc(Cl)c(F)c2)NCCC(F)(F)F)[nH]n1 [Compound A-179] | < 5.00 | < 5.00 |  |
| Cc1cc(N/C(=N\C(=O)c2ccc(C(F)(F)F)cc2)NCC(C)C)n[nH]1 [Compound A-189] | > 5.00 |  | > 5.00 |
| Cc1cc(N/C(=N\C(=O)c2ccc(C(F)(F)F)cc2)NC(C)(C)C)n[nH]1 [Compound A-125] | > 5.00 |  | > 5.00 |
| CC(C)(C)CN/C(=N/C(=O)c1ccc(F)cc1)Nc1cc(-c2ccc(F)cc2)[nH]n1 [Compound A-514] | > 5.00 |  | > 5.00 |
| CC(C)(C)CN/C(=N/C(=O)c1ccc(C(F)(F)F)cc1)Nc1cc(C(F)(F)F)n[nH]1 [Compound A-51] | > 5.00 | > 5.00 |  |
| CC(C)NC(=NC(=O)c1ccc(F)c(F)c1)Nc1cc(-c2ccc(Cl)cc2)n[nH]1 [Compound A-379] | > 5.00 | > 5.00 |  |
| O=C(N=C(Nc1cc(-c2ccc(F)cc2)n[nH]1)NC1CCOCC1)c1ccc(C(F)(F)F)cc1 [Compound A-465] | < 5.00 | < 5.00 |  |
| O=C(N=C(Nc1cc(F)cc(Cl)c1)Nc1cc(-c2cc(F)cc(F)c2)[nH]n1)c1ccc(F)c(F)c1 [Compound A-419] | > 5.00 | > 5.00 |  |
| CC(C)(C)N/C(=N/C(=O)c1ccc(F)c(F)c1)Nc1cc(C(F)F)[nH]n1 [Compound A-62] | > 5.00 | > 5.00 |  |
| O=C(N=C(NCc1ccc(F)cc1Cl)Nc1cc(-c2ccc(F)cc2)n[nH]1)c1ccc(F)c(F)c1 [Compound A-440] | > 5.00 | > 5.00 |  |
| O=C(/N=C(/NCC(O)CO)Nc1cc(C(F)(F)F)n[nH]1)c1ccc(F)cc1 (stereo not shown) [Compound A-562, (Z)—N-(((2,3-Dihydroxypropyl)amino)((3-(trifluoromethyl)-1H-pyrazol-5-yl)amino)methylene)-4-fluorobenzamide] | < 5.00 | < 5.00 |  |
| O=C(/N=C(/Nc1cc(F)cc(Cl)c1)Nc1cc(C(F)F)[nH]n1)c1ccc(F)c(F)c1 [Compound A-52] | > 5.00 | > 5.00 |  |
| O=C(/N=C(/Nc1cc(F)cc(Cl)c1)Nc1cc(-c2ccccc2)[nH]n1)c1ccc(C(F)(F)F)cc1 [Compound A-151] | > 5.00 |  | < 5.00 |
| COc1ccc(-c2cc(N/C(=N\C(=O)c3ccc(Cl)c(F)c3)NC(C)(C)C)[nH]n2)cc1 [Compound A-467] | > 5.00 |  | > 5.00 |
| O=C(/N=C(/NCc1ccc(F)cc1Cl)Nc1cc(C(F)(F)F)[nH]n1)c1ccc(F)c(F)c1 [Compound A-24] | > 5.00 | > 5.00 |  |
| O=C(/N=C(\Nc1cc(C(F)(F)F)[nH]n1)NC1CCCC1)c1ccc(C(F)F)cc1 [Compound A-67] | > 5.00 | > 5.00 |  |
| CC(C)CN/C(=N/C(=O)c1ccc(F)c(F)c1)Nc1cc(-c2ccc(CO)cc2)n[nH]1 [Compound A-570, (Z)-3,4-Difluoro-N-(((3-(4-(hydroxymethyl)phenyl)-1H-pyrazol-5-yl)amino)(isobutylamino)methylene)benzamide] | < 5.00 | < 5.00 |  |
| CC(C)(C)N/C(=N/C(=O)c1ccnc(N2CCCC2)c1)Nc1cc(-c2ccc(F)cc2)n[nH]1 [Compound A-487] | > 5.00 |  | > 5.00 |
| CC(C)CNC(=NC(=O)c1ccc(F)c(F)c1)Nc1cc(-c2cc(F)cc(F)c2)n[nH]1 [Compound A-364] | > 5.00 | > 5.00 |  |
| CC(C)CNC(=NC(=O)c1ccc(Cl)cc1)Nc1cc(-c2ccc(F)cc2)n[nH]1 [Compound A-249] | > 5.00 | > 5.00 |  |
| COc1cccc(C(=O)N=C(NCc2ccc(F)cc2Cl)Nc2cc(C(F)(F)F)n[nH]2)c1 [Compound A-542] | > 5.00 | > 5.00 |  |
